Reference: patent US20090275583A1, “ANTIVIRAL COMPOUNDS AND USE THEREOF” (Myriad Genetics, Incorporated, priority 2006, published 2009)
pEC50, pIC50: −log10 of the molar value. Where two headings read alike, the source gives them in different places.

Tests used:
[1] = test system: HIV-1 laboratory strain, NL4-3; experiment: MT-4 cytoprotection assay; assay type: cell-based
In short: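 MT-4 cells mock- or batch-infected with NL4-3 (MOI 0.0005) for 2 h, washed, then cultured 4 days with increasing compound concentrations. Viability read by WST-1 tetrazolium reduction: cytoprotection in infected cells, toxicity in mock-infected cells.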

[2] = test system: HIV-1NL4-3; experiment: P4-MAGI assay; assay type: cell-based
In short: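 Cytotoxicity (TC50, 50% growth inhibition) came from WST-1 in uninfected cells. For antiviral activity, compound at rising concentrations was added immediately after HIV-1NL4-3 inoculation (MOI 1, DEAE-Dextran) of P4 cells, CD4+ HeLa cells expressing β-galactosidase from a minimal HIV-1 LTR upon infection.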

[3] = Human immunodeficiency virus 1, NL43, MT4, 96 h, MT-4 cells, four days incubation, WST-1 readout, read-out: MT4 EC50
[4] = Human immunodeficiency virus 1, 24 h, P4 cells, 24 hour incubation, β-galactosidase expression, read-out: P4-MAGI IC50
[5] = Human immunodeficiency virus 1, NL43, less than about 100 nm, read-out: MT-4 assay EC50 (concentration of compound that reduces the virus induced cytopathic effect by 50%)
[6] = Human immunodeficiency virus 1, text statement, less than about 100 nm, read-out: P4-MAGI assay IC50

For `C=C(C)[C@@H]1CC[C@]2(C(=O)NCCc3cccc(C(=O)NCc4ccc(OCCCN5CCOCC5)cc4)c3)CC[C@]3(C)C(CCC4[C@@]5(C)CC[C@H](O)C(C)(C)C5CC[C@]43C)C12` (stereo partly drawn) [Example 196], the pEC50 [1, 3] was 7.90 and the pIC50 [2, 4] was 7.89.

With `C=C(C)[C@@H]1CC[C@]2(C(=O)NCCc3cccc(C(=O)NC(C)(C)c4ccccn4)c3)CC[C@]3(C)C(CCC4[C@@]5(C)CC[C@H](O)C(C)(C)C5CC[C@]43C)C12` (stereo partly drawn) [Example 159] the pEC50 [1, 3] was under 5.00 and the pIC50 [2, 4] was 6.60.

`C=C(C)[C@@H]1CC[C@]2(C(=O)NCc3cccc(C(=O)NCc4ccc(OCCCO)c(C(=O)O)c4)c3)CC[C@]3(C)C(CCC4[C@@]5(C)CC[C@H](O)C(C)(C)C5CC[C@]43C)C12` (stereo partly drawn) [Example 125] was tested, and the pEC50 [1, 3] was 7.25, the pEC50 [1, 5] was over 7.00 and the pIC50 [2, 4] was 7.38. The pIC50 [2, 6] was over 7.00.

For `C=C(C)[C@@H]1CC[C@]2(C(=O)NCCc3cccc(C(=O)NCc4ccc(OCCCO)cc4)c3)CC[C@]3(C)C(CCC4[C@@]5(C)CC[C@H](O)C(C)(C)C5CC[C@]43C)C12` (stereo partly drawn) [Example 232], the pEC50 [1, 3] was 7.15 and the pIC50 [2, 4] was 7.41.

For `C=C(C)[C@@H]1CC[C@]2(C(=O)NCc3cc(C(=O)NCCc4cccc(C(=O)O)c4)ccc3F)CC[C@]3(C)C(CCC4[C@@]5(C)CC[C@H](O)C(C)(C)C5CC[C@]43C)C12` (stereo partly drawn) [Example 97], the pEC50 [1, 3] was 9.00, the pEC50 [1, 5] was over 7.00 and the pIC50 [2, 4] was 7.63. It also gave a pIC50 [2, 6] of over 7.00.

`C=C(C)[C@@H]1CC[C@]2(C(=O)NCc3cccc(C(=O)NCc4cccc(C(=O)OC)c4F)c3)CC[C@]3(C)C(CCC4[C@@]5(C)CC[C@H](O)C(C)(C)C5CC[C@]43C)C12` (stereo partly drawn) [Example 42] was tested, and the pEC50 [1, 3] was 7.38, the pEC50 [1, 5] was over 7.00 and the pIC50 [2, 4] was 7.23. It also gave a pIC50 [2, 6] of over 7.00.

`C=C(C)[C@@H]1CC[C@]2(C(=O)NCCc3cccc(C(=O)NCc4ccc(C(=O)NCCN5CCOCC5)cn4)c3)CC[C@]3(C)C(CCC4[C@@]5(C)CC[C@H](O)C(C)(C)C5CC[C@]43C)C12` (stereo partly drawn) [Example 174] gave a pEC50 [1, 3] of 8.15 and a pIC50 [2, 4] of 8.22.

In the case of `C=C(C)[C@@H]1CC[C@]2(C(=O)NCCc3cccc(C(=O)NCc4ccc(OCCCN5CCNCC5)c(C(=O)O)c4)c3)CC[C@]3(C)C(CCC4[C@@]5(C)CC[C@H](O)C(C)(C)C5CC[C@]43C)C12` (stereo partly drawn) [Example 245], the pEC50 [1, 3] was 7.46 and the pIC50 [2, 4] was 7.56.

`CC(O)(CN1CCCC1)[C@@H]1CC[C@]2(C(=O)NCCc3cccc(C(=O)NCc4ccc(C(=O)O)cn4)c3)CC[C@]3(C)C(CCC4[C@@]5(C)CC[C@H](O)C(C)(C)C5CC[C@]43C)C12` (stereo partly drawn) [Example 270] gave a pEC50 [1, 3] of 6.36 and a pIC50 [2, 4] of 7.00.

With `C=C(C)[C@@H]1CC[C@]2(C(=O)NCCc3cccc(C(=O)NCc4ccc(C(=O)O)s4)c3)CC[C@]3(C)C(CCC4[C@@]5(C)CC[C@H](O)C(C)(C)C5CC[C@]43C)C12` (stereo partly drawn) [Example 70] the pEC50 [1, 3] was 8.80, the pEC50 [1, 5] was over 7.00 and the pIC50 [2, 4] was 7.71. The pIC50 [2, 6] was over 7.00.

Work on `C=C(C)[C@@H]1CC[C@]2(C(=O)NCCc3cccc(-c4nc5ccc(C(=O)O)cc5[nH]4)c3)CC[C@]3(C)C(CCC4[C@@]5(C)CC[C@H](O)C(C)(C)C5CC[C@]43C)C12` (stereo partly drawn) [Example 130] yielded a pEC50 [1, 3] of 6.64 and a pIC50 [2, 4] of 7.41.

In the case of `C=C(C)[C@@H]1CC[C@]2(C(=O)NCCc3cccc(C(=O)NCc4ccc(C(=O)NC(CO)C(=O)O)cc4)c3)CC[C@]3(C)C(CCC4[C@@]5(C)CC[C@H](O)C(C)(C)C5CC[C@]43C)C12` (stereo partly drawn) [Example 185], the pEC50 [1, 3] was 7.44 and the pIC50 [2, 4] was 7.85.

`C=C(C)[C@@H]1CC[C@]2(C(=O)NCCc3cccc(C(=O)NCc4ccc(C(=O)N5CCNC(C(=O)O)C5)cc4)c3)CC[C@]3(C)C(CCC4[C@@]5(C)CC[C@H](O)C(C)(C)C5CC[C@]43C)C12` (stereo partly drawn) [Example 194] was tested, and the pEC50 [1, 3] was 7.80 and the pIC50 [2, 4] was 7.74.

`C=C(C)[C@@H]1CC[C@]2(C(=O)NCCc3cccc(C(=O)NCc4ccc(-c5nn[nH]n5)cn4)c3)CC[C@]3(C)C(CCC4[C@@]5(C)CC[C@H](O)C(C)(C)C5CC[C@]43C)C12` (stereo partly drawn) [Example 253] was tested, and the pEC50 [1, 3] was 8.46 and the pIC50 [2, 4] was 7.97.

For `C=C(C)[C@@H]1CC[C@]2(C(=O)NCCc3cccc(C(=O)N[C@H](C)C4CCC(C(=O)O)CC4)c3)CC[C@]3(C)C(CCC4[C@@]5(C)CC[C@H](O)C(C)(C)C5CC[C@]43C)C12` (stereo partly drawn) [Example 215], the pEC50 [1, 3] was 7.94 and the pIC50 [2, 4] was 7.66.

`C=C(C)[C@@H]1CC[C@]2(C(=O)NCc3cccc(C(=O)NCc4ccc(OCCCN5CCOCC5)c(C(=O)OC)c4)c3)CC[C@]3(C)C(CCC4[C@@]5(C)CC[C@H](O)C(C)(C)C5CC[C@]43C)C12` (stereo partly drawn) [Example 123] was tested, and the pEC50 [1, 3] was 7.89, the pEC50 [1, 5] was over 7.00 and the pIC50 [2, 4] was 7.72. The pIC50 [2, 6] was over 7.00.

`C=C(C)[C@@H]1CC[C@]2(C(=O)NCCc3cccc(C(=O)NCc4ccc(C(=O)N[C@@H](C(=O)O)C(C)C)cc4)c3)CC[C@]3(C)C(CCC4[C@@]5(C)CC[C@H](O)C(C)(C)C5CC[C@]43C)C12` (stereo partly drawn) [Example 168] showed a pEC50 [1, 3] of 8.22 and a pIC50 [2, 4] of 7.85.

With `C=C(C)[C@@H]1CC[C@]2(C(=O)NCCc3cccc(C(=O)NCc4ccc(N)cc4)c3)CC[C@]3(C)C(CCC4[C@@]5(C)CC[C@H](O)C(C)(C)C5CC[C@]43C)C12` (stereo partly drawn) [Example 181] the pEC50 [1, 3] was 7.55 and the pIC50 [2, 4] was 7.72.

For `C=C(C)[C@@H]1CC[C@]2(C(=O)NCCc3cccc(C(=O)NCc4ccc(C(=O)O)cc4)c3F)CC[C@]3(C)C(CCC4[C@@]5(C)CC[C@H](O)C(C)(C)C5CC[C@]43C)C12` (stereo partly drawn) [Example 94], the pEC50 [1, 3] was 6.54, the pIC50 [2, 4] was 7.15 and the pIC50 [2, 6] was over 7.00.

`C=C(C)[C@@H]1CC[C@]2(C(=O)NCCc3cccc(C(=O)NCc4ccc(NCCCN5CCOCC5)cc4)c3)CC[C@]3(C)C(CCC4[C@@]5(C)CC[C@H](O)C(C)(C)C5CC[C@]43C)C12` (stereo partly drawn) [Example 191] gave a pEC50 [1, 3] of 7.80 and a pIC50 [2, 4] of 7.54.

In the case of `C=C(C)[C@@H]1CC[C@]2(C(=O)NCCc3cccc(C(=O)NCc4ccc(C(=O)NCCc5cnc[nH]5)cn4)c3)CC[C@]3(C)C(CCC4[C@@]5(C)CC[C@H](O)C(C)(C)C5CC[C@]43C)C12` (stereo partly drawn) [Example 272], the pEC50 [1, 3] was 7.91 and the pIC50 [2, 4] was 8.51.

`C=C(C)[C@@H]1CC[C@]2(C(=O)NCCc3cccc(C(=O)Nc4cccc(C(=O)O)c4)c3)CC[C@]3(C)C(CCC4[C@@]5(C)CC[C@H](O)C(C)(C)C5CC[C@]43C)C12` (stereo partly drawn) [Example 60] gave a pEC50 [1, 3] of 6.61, a pIC50 [2, 4] of 7.51 and a pIC50 [2, 6] of over 7.00.

With `C=C(C)[C@@H]1CC[C@]2(C(=O)NCCc3cccc(C(=O)NCc4ccc(C(=O)N[C@H](Cc5cc6ccccc6[nH]5)C(=O)O)cc4)c3)CC[C@]3(C)C(CCC4[C@@]5(C)CC[C@H](O)C(C)(C)C5CC[C@]43C)C12` (stereo partly drawn) [Example 166] the pEC50 [1, 3] was 7.89 and the pIC50 [2, 4] was 7.66.

`C=C(C)[C@@H]1CC[C@]2(C(=O)NCCc3cccc(C(=O)NCc4ccc(C(=O)NCc5cccnc5C(=O)OC)cc4)c3)CC[C@]3(C)C(CCC4[C@@]5(C)CC[C@H](O)C(C)(C)C5CC[C@]43C)C12` (stereo partly drawn) [Example 189] showed a pEC50 [1, 3] of 7.60 and a pIC50 [2, 4] of 8.40.

Compound `C=C(C)[C@@H]1CC[C@]2(C(=O)NCCc3cccc(C(=O)NCc4ccc(C(=O)N[C@@H](C(=O)OC)C(C)C)cc4)c3)CC[C@]3(C)C(CCC4[C@@]5(C)CC[C@H](O)C(C)(C)C5CC[C@]43C)C12` (stereo partly drawn) [Example 169] has a pEC50 [1, 3] of 8.05 and a pIC50 [2, 4] of 7.70.

`C=C(C)[C@@H]1CC[C@]2(C(=O)NCCc3ccc(O)cc3)CC[C@]3(C)C(CCC4[C@@]5(C)CC[C@H](O)C(C)(C)C5CC[C@]43C)C12` (stereo partly drawn) [Example 111] showed a pEC50 [1, 3] of 5.42, a pIC50 [2, 4] of 7.14 and a pIC50 [2, 6] of over 7.00.

For `C=C(C)[C@@H]1CC[C@]2(C(=O)NCc3cc(C(=O)NCc4ccc(C(=O)OC)cc4)ccc3F)CC[C@]3(C)C(CCC4[C@@]5(C)CC[C@H](O)C(C)(C)C5CC[C@]43C)C12` (stereo partly drawn) [Example 100], the pEC50 [1, 3] was 8.89, the pEC50 [1, 5] was over 7.00 and the pIC50 [2, 4] was 7.67. It also gave a pIC50 [2, 6] of over 7.00.
